In patent publication US12692268B2 (priority 2020, dated 2026):
Like-named read-outs stand apart in the source and are kept apart here.

What was measured:
JNK3 [1] = target: T1, JNK3 (Homo sapiens, UniProt P53779); test: biochemical
GSK-β = GSK-β (Homo sapiens, UniProt P49841); test: Kinase panel screening, single dose 10 μM; type: biochemical; settings: single dose concentration of 10 μM; read-out: inhibitory activity for GSK-β
JNK3 [2] = target: T1, JNK3; test: Kinase panel screening, single dose 10 μM; type: biochemical; settings: single dose concentration of 10 μM; read-out: inhibitory activity for JNK3
RIPK3 = RIPK3 (Homo sapiens, UniProt Q9Y572); test: Kinase panel screening, single dose 10 μM; type: biochemical; settings: single dose concentration of 10 μM; read-out: inhibitory activity for RIPK3
JNK2 = JNK2 (Homo sapiens, UniProt P45984); test: Kinase panel screening, single dose 10 μM; type: biochemical; settings: single dose concentration of 10 μM; read-out: inhibitory activity for JNK2
Chain of JNK2 (P45984 whole entry, species assumed): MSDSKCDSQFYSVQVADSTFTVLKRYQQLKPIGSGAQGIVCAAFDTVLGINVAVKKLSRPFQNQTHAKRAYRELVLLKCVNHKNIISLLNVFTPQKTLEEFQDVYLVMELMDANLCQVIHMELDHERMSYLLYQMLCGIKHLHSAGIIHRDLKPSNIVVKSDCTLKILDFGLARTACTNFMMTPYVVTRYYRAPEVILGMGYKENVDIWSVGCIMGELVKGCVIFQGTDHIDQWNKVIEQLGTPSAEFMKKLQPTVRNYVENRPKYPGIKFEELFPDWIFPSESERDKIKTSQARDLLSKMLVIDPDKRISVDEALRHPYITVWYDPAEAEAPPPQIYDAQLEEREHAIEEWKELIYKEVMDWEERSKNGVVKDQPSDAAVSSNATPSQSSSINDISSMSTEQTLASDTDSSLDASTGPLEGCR

T1 sequence (P53779 whole entry): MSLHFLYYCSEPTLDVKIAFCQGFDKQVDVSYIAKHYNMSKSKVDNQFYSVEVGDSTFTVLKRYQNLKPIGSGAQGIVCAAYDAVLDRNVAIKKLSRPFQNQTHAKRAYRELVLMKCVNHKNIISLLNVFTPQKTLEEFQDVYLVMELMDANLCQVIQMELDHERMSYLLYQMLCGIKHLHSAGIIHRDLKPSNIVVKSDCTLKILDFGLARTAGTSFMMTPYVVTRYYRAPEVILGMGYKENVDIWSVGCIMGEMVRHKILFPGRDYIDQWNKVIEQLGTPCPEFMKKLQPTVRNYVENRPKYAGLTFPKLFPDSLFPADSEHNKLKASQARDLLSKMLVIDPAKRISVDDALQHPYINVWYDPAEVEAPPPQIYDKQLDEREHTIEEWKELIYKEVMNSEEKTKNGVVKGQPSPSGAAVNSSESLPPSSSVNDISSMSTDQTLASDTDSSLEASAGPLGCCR
Chain of RIPK3 (Q9Y572 whole entry, species assumed): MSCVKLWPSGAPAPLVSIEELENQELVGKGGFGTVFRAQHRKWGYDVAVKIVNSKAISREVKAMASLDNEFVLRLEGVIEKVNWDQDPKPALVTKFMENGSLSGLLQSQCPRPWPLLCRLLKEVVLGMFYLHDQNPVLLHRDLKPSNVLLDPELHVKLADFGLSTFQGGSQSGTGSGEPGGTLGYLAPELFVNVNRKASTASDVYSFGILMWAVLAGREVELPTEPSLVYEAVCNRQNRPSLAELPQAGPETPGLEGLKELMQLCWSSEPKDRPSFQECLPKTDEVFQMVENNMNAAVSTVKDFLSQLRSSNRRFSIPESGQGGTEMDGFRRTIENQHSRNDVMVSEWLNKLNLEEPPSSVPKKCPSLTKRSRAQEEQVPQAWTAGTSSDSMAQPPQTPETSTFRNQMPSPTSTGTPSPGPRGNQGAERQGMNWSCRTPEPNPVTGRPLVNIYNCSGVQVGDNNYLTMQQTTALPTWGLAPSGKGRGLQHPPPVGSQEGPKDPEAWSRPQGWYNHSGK
Chain of GSK-β (P49841 whole entry): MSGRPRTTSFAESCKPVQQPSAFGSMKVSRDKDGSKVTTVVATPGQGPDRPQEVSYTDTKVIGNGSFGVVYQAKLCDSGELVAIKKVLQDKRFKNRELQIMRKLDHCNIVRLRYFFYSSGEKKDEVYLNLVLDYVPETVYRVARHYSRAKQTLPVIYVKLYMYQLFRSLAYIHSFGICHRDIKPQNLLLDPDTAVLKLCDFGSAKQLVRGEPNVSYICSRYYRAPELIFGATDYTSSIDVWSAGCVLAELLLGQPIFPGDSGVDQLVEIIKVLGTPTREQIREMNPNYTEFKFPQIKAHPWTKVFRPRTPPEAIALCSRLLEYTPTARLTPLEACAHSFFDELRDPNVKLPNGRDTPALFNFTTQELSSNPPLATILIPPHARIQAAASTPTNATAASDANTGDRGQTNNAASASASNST

O=C(C1CC1)N1CCC[C@H](Nc2nccc(-n3c(-c4ccc(Cl)c(Cl)c4)nc4c3CN(C(=O)N3CCC(O)CC3)C4)n2)C1 [Compound 16a, (S)-(1-(2-((1-(cyclopropanecarbonyl)piperidin-3-yl)amino)pyrimidin-4-yl)-2-(3,4-dichlorophenyl)-4,6-dihydropyrrolo[3,4-d]imidazol-5(1H)-yl)(4-hydroxypiperidin-1-yl)methanone]
IC50 (JNK3 [1]): < 30 nM

NC(=O)N1Cc2nc(-c3ccc(Cl)c(Cl)c3)n(-c3ccnc(N[C@H]4CCCN(C(=O)C5CC5)C4)n3)c2C1 [Compound 16b, (S)-1-(2-((1-(cyclopropanecarbonyl)piperidin-3-yl)amino)pyrimidin-4-yl)-2-(3,4-dichlorophenyl)-4,6-dihydropyrrolo[3,4-d]imidazole-5(1H)-carboxamide]
IC50 (JNK3 [1]; JNK3 enzyme activity, Table 1, read-out: IC50): < 30 nM

NC(=O)N1Cc2nc(-c3ccc(Cl)c(Cl)c3)n(-c3ccnc(N[C@@H]4CCN(C(=O)C5CC5)C4)n3)c2C1 [Compound 16c, (R)-1-(2-((1-(cyclopropanecarbonyl)pyrrolidin-3-yl)amino)pyrimidin-4-yl)-2-(3,4-dichlorophenyl)-4,6-dihydropyrrolo[3,4-d]imidazole-5(1H)-carboxamide]
inhibition at 10 µM (GSK-β): 70% | inhibition at 10 µM (JNK3 [2]): 100% | inhibition at 10 µM (RIPK3): 50% | inhibition at 10 µM (JNK2): 100%

NC(=O)N1Cc2nc(-c3ccc4c(c3)OCO4)n(-c3ccnc(N[C@H]4CCCN(C(=O)C5CCC5)C4)n3)c2C1 [Compound 16m, (S)-2-(benzo[d][1,3]dioxol-5-yl)-1-(2-((1-(cyclobutanecarbonyl)piperidin-3-yl)amino)pyrimidin-4-yl)-4,6-dihydropyrrolo[3,4-d]imidazole-5(1H)-carboxamide]
IC50 (JNK3 [1]; JNK3 enzyme activity, Table 2, read-out: IC50): 100 to 10000 nM
